Measured values published in ChEMBL document CHEMBL1201862, “PubChem BioAssay data set” (2004).
Where “and” joins values, the source holds several entries; their conditions need not be identical. Equal entries are not always repeated.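 Tested at 5 concentrations; 48 h exposure; 96-well plates; endpoints linearly interpolated, else capped at highest concentration. GI50 = concentration required for 50% inhibition of growth.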 Calls of active or inactive are those of the source. No stated cut-off is given here; in the data, active = GI50 up to about 1.1 µM and inactive = higher. *1 amine or outer side, *2 acyl side, *3 side chain or, on linkers, in order; H or OH if unused. Where a SMILES comes first, the peptide text is derived from it. Bridges are numbered along the chain shown (N, C = ends). Roman numbers before positions name the chains, in order. [ ]: non-standard residue; d: D form. Actinocin(1to9) = Cc1c2oc3c(C)ccc(C(=O)[*:2])c3nc-2c(C(=O)[*:1])c(N)c1=O; NMeY = CN[CH](Cc1ccc(O)cc1)C(=O)O; Sar = CNCC(=O)O

How the values were obtained:
Assay in all cases: NCI anticancer screen, dose series, 48 h
[1] = system: A498
[2] = system: A549
[3] = system: ACHN
[4] = system: BT-549
[5] = system: DU-145
[6] = system: HCC 2998
[7] = system: HOP-62
[8] = system: KM12
[9] = system: MDA-MB-435
[10] = system: MDA-N
[11] = system: Malme-3M
[12] = system: NCI-H226
[13] = system: NCI-H23
[14] = system: OVCAR-3
[15] = system: OVCAR-4
[16] = system: OVCAR-8
[17] = system: PC-3
[18] = system: RPMI-8226
[19] = system: SF-295
[20] = system: SF-539
[21] = system: SK-MEL-28
[22] = system: SK-MEL-5
[23] = system: SN12C
[24] = system: SNB-19
[25] = system: SNB-75
[26] = system: SW-620
[27] = system: T47D
[28] = system: UACC-257
[29] = system: UACC-62
[30] = system: 786-0
[31] = system: CAKI-1
[32] = system: COLO 205
[33] = system: EKVX
[34] = system: K562
[35] = system: LOX IMVI
[36] = system: NCI-H460
[37] = system: NCI-H522
[38] = system: OVCAR-5
[39] = system: SK-MEL-2
[40] = system: SK-OV-3
[41] = system: SR
[42] = system: U-251
[43] = system: UO-31
[44] = system: CCRF-CEM
[45] = system: HCT-116
[46] = system: HCT-15
[47] = system: HL-60
[48] = system: HT-29
[49] = system: Hs-578T
[50] = system: IGROV-1
[51] = system: M14
[52] = system: MCF7
[53] = system: MDA-MB-231
[54] = system: MOLT-4
[55] = system: NCI/ADR-RES
[56] = system: RXF 393
[57] = system: SF-268
[58] = system: TK-10
[59] = system: HOP-92

Measured: GI50

COc1ccc(CC2C(=O)OC(C)C(NC(=O)c3c4nc5c(C(=O)NC6C(=O)NC(C(C)C)C(=O)N7CCCC7C(=O)N(C)CC(=O)N(C)C(Cc7ccc(OC)cc7)C(=O)OC6C)ccc(C)c5oc-4c(C)c(=O)c3N)C(=O)NC(C(C)C)C(=O)N3CCCC3C(=O)N(C)CC(=O)N2C)cc1 (stereo unspecified) (I: TVP[Sar][NMeY](Me) / II: TVP[Sar][NMeY](Me); ester I:1-I:C, II:1-II:C; linker I:N-II:N via Actinocin(1to9); configuration not given here)
active: [1] < 10 nM and 14.9 nM | [2] 0.00527 µM | [3] 0.0102 µM | [4] 0.0208 µM | [5] 0.0121 µM | [6] < 10 nM and 8.04 nM | [7] 0.00953 µM | [8] 0.00516 µM | [9] 0.00923 µM | [10] 0.00811 µM | [11] < 10 nM and 10.6 nM | [12] < 10 nM and 14.9 nM | [13] 0.0104 µM | [14] < 10 nM and 9.44 nM | [15] < 0.01 µM | [16] 0.00859 µM | [17] < 10 nM and 10 nM | [18] 0.0121 µM | [19] 0.0199 µM | [20] < 10 nM and 7.08 nM | [21] 0.00964 µM | [22] 0.0119 µM | [23] 0.0053 µM | [24] 0.00637 µM | [25] 0.00764 µM | [26] < 10 nM and 13.6 nM | [27] 0.0094 µM | [28] 0.0155 µM | [29] 0.0107 µM

CCN(CC)C(=S)SS(=O)(=O)c1ccc([N+](=O)[O-])cc1
active: [37] 0.0282 µM | [41] 0.148 µM
inactive: [30] 16.7 µM | [1] > 100 µM | [2] 1.18 µM | [4] 36.8 µM | [31] 18.8 µM | [32] 19.9 µM | [33] > 100 µM | [34] 19.4 µM | [35] 17.5 µM | [11] 14.9 µM | [13] 56.8 µM | [36] 96.2 µM | [38] > 100 µM | [16] 20.4 µM | [18] 12.8 µM | [20] 21.2 µM | [39] 48.3 µM | [22] 2.77 µM | [40] > 100 µM | [24] 76.7 µM | [27] 43.2 µM | [42] 14.5 µM | [29] 27.4 µM | [43] 21.7 µM

CN(c1ccc(Cl)cc1)S(=O)(=O)c1cccc([N+](=O)[O-])c1
inactive: [30] > 100 µM | [2] > 100 µM | [3] 99.1 µM | [4] 32.7 µM | [31] 64.6 µM | [44] 27.5 µM | [32] 65 µM | [5] > 100 µM | [33] 66.5 µM | [6] 79.1 µM | [45] 34 µM | [47] > 10 µM | [7] 89.3 µM | [48] 22.5 µM | [49] > 100 µM | [50] > 100 µM | [34] 26.9 µM | [8] 52.6 µM | [35] 41.9 µM | [51] 43.4 µM | [52] 56.1 µM | [53] 44 µM | [9] 34.8 µM | [10] 67.9 µM | [54] 17.2 µM | [11] 69.2 µM | [12] 53.8 µM | [13] 34.7 µM | [36] 42.3 µM | [37] 65.5 µM | [55] 36.7 µM | [14] 55.3 µM | [15] > 100 µM | [38] 87.3 µM | [16] > 100 µM | [17] 14.3 µM | [18] 39.1 µM | [56] 45.4 µM | [57] 66.7 µM | [19] > 100 µM | [20] 66.4 µM | [21] 95.9 µM | [39] 44.2 µM | [22] 27.4 µM | [40] > 100 µM | [23] > 100 µM | [24] > 100 µM | [25] 56.5 µM | [41] 52.6 µM | [26] 70.5 µM | [58] > 100 µM | [42] 64.4 µM | [28] > 100 µM | [29] 39.4 µM | [43] 39.9 µM
47.1 µM: [46]

COC(=O)c1cc(-c2ccc(-c3ccc(O)cc3)cc2)cc(-c2ccc(-c3ccc(O)cc3)cc2)c1
inactive: [30] 5.98 µM | [1] 16.4 µM | [2] 8.45 µM | [3] 8.71 µM | [4] 13.7 µM | [31] 16 µM | [44] 14.8 µM | [32] 12.6 µM | [33] 11.9 µM | [6] 11.2 µM | [45] 5.64 µM | [7] 12.1 µM | [59] 6.62 µM | [50] 6.44 µM | [34] 4.51 µM | [8] 2.17 µM | [35] 6.14 µM | [51] 13.4 µM | [52] 4.48 µM | [53] 17.9 µM | [9] 10.4 µM | [10] 11 µM | [54] 10.4 µM | [12] 12.7 µM | [13] 8.51 µM | [36] 17.8 µM | [37] 2.62 µM | [55] 11.7 µM | [14] 12 µM | [15] 13.5 µM | [38] 15.7 µM | [17] 10.8 µM | [18] 10.7 µM | [56] 5.62 µM | [57] 4.04 µM | [19] 6.75 µM | [20] 5.33 µM | [21] 13 µM | [39] 15.3 µM | [22] 17 µM | [40] 15.6 µM | [23] 13.4 µM | [24] 15.5 µM | [25] 7.74 µM | [26] 7.11 µM | [27] 4.61 µM | [58] 13.6 µM | [28] 14.1 µM | [43] 11.5 µM
7.74 µM: [46]
